Test results: ChEMBL document CHEMBL1201862, “PubChem BioAssay data set” (2004)
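Cells were grown in 96-well plates and exposed to each compound for 48 hours at five concentrations; endpoints were interpolated linearly between bracketing concentrations, or set to the highest concentration if not reached. Abbreviation: GI50, concentration required for 50% inhibition of growth.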 Activity calls are given as the source filed them. No stated cut-off is given here; in the data, active = GI50 up to about 1.1 µM and inactive = higher.

Experiments:
Assay in all cases: growth of human tumour cells (NCI), 48 h
[1] = system: OVCAR-4
[2] = system: HOP-62
[3] = system: NCI-H226
[4] = system: PC-3
[5] = system: EKVX
[6] = system: OVCAR-3
[7] = system: SK-MEL-28
[8] = system: MDA-MB-435
[9] = system: NCI-H522
[10] = system: Malme-3M
[11] = system: UO-31
[12] = system: U-251
[13] = system: OVCAR-5
[14] = system: HCC 2998
[15] = system: KM12
[16] = system: MCF7
[17] = system: HCT-15
[18] = system: HCT-116
[19] = system: SF-268
[20] = system: A549

Row | Compound | GI50 [1] | GI50 [2] | GI50 [3] | GI50 [4] | GI50 [5] | GI50 [6] | GI50 [7] | GI50 [8] | GI50 [9] | GI50 [10] | GI50 [11] | GI50 [12] | GI50 [13] | GI50 [14] | GI50 [15] | GI50 [16] | GI50 [17] [µM] | GI50 [18] | GI50 [19] | GI50 [20]
1 | CCCCCCCCC/C=C1\CC(CO)(COC(=O)c2ccccc2)OC1=O (stereo unspecified) | 35.1 µM (inactive) | 14.8 µM (inactive) | 23.2 µM (inactive) | 17.2 µM (inactive) | 15.3 µM (inactive) | 22.4 µM (inactive) | 16.7 µM (inactive) | 16 µM (inactive) | 17.9 µM (inactive) | 14.5 µM (inactive) | 16.3 µM (inactive) | 21.1 µM (inactive) | 15.9 µM (inactive) | 22.8 µM (inactive) | 21.4 µM (inactive) | 23.8 µM (inactive) | 20.7 | 22.2 µM (inactive) | 22.7 µM (inactive) | 20 µM (inactive)
2 | Nc1ncnc2c1ncn2C1C=C(CO)C(O)C1O (stereo unspecified) | 6.24 µM (inactive) | 3.26 µM (inactive) | 22.4 µM (inactive) | 6.92 µM (inactive) | 25.8 µM (inactive) | 5.01 µM (inactive) | 1.23 µM (inactive) | 3.08 µM (inactive) | 3.99 µM (inactive) | 5.33 µM (inactive) | 0.41 µM (active) | 10.4 µM (inactive) | 7.5 µM (inactive) | 4.72 µM (inactive) | 0.264 µM (active) | 0.197 µM (active) | 0.468 | 0.0509 µM (active) | 10.1 µM (inactive) | 14.9 µM (inactive)
3 | COC(=O)C1CC2CC1C1C2SC(F)(F)C1(F)F (stereo unspecified) | > 100 µM (inactive) | > 100 µM (inactive) | > 100 µM (inactive) | > 100 µM (inactive) | > 100 µM (inactive) | > 100 µM (inactive) | > 100 µM (inactive) | > 100 µM (inactive) | > 100 µM (inactive) | > 100 µM (inactive) | > 100 µM (inactive) | > 100 µM (inactive) | > 100 µM (inactive) | > 100 µM (inactive) | > 100 µM (inactive) | > 100 µM (inactive) | > 100 | > 100 µM (inactive) | > 100 µM (inactive) | > 100 µM (inactive)
4 | O=C(O)CCS/C(=C\C(SCCC(=O)O)c1ccc(Cl)cc1)c1ccc(Cl)cc1 (stereo unspecified) | 41.2 µM (inactive) | 37.5 µM (inactive) | 69 µM (inactive) | 61 µM (inactive) | 62.5 µM (inactive) | 21.6 µM (inactive) | 45.1 µM (inactive) | 36.4 µM (inactive) | 33.5 µM (inactive) | 76.4 µM (inactive) | 78 µM (inactive) | 33.5 µM (inactive) | > 100 µM (inactive) | 24.2 µM (inactive) | 25.6 µM (inactive) | 21.3 µM (inactive) | 30.8 | 21.4 µM (inactive) | 50 µM (inactive) | 57.1 µM (inactive)
5 | Clc1ccc(Cc2nc3cc(Cl)c(Cl)cc3n2CC2CCCN3CCCCC23)cc1 (stereo unspecified) | 16.7 µM (inactive) | 18.5 µM (inactive) | 17.3 µM (inactive) | 9.04 µM (inactive) | 10.3 µM (inactive) | 11 µM (inactive) | 6.93 µM (inactive) | 13 µM (inactive) | 12.2 µM (inactive) | 7.87 µM (inactive) | 0.285 µM (active) | 8.11 µM (inactive) | 12.8 µM (inactive) | 3.68 µM (inactive) | 6.59 µM (inactive) | 10.7 µM (inactive) | 10.7 | 9.68 µM (inactive) | 8.17 µM (inactive) | 13.2 µM (inactive)
6 | CN(C)/C=C/c1nnnn1-c1ccc(I)cc1 | 20.5 µM (inactive) | 31.8 µM (inactive) | 22.8 µM (inactive) | 16.6 µM (inactive) | 21.6 µM (inactive) | 23.6 µM (inactive) | 26.7 µM (inactive) | 20.5 µM (inactive) | 25.5 µM (inactive) | 21 µM (inactive) | 17.6 µM (inactive) | 11.9 µM (inactive) | 23.7 µM (inactive) | 39.6 µM (inactive) | 18.5 µM (inactive) | 12 µM (inactive) | 13.5 | 10.5 µM (inactive) | 17.5 µM (inactive) | > 100 µM (inactive)
7 | CCCCCC(/C=C/[C@@H]1CC(=O)C[C@H]1O[Si](C)(C)C(C)(C)C)OCOCCOC (stereo partly specified) | 5.56 µM (inactive) | 15.5 µM (inactive) | 5.48 µM (inactive) | 4.16 µM (inactive) | 6.31 µM (inactive) | 3.93 µM (inactive) | 3.08 µM (inactive) | 2.02 µM (inactive) | 1.93 µM (inactive) | 2.35 µM (inactive) | 2.42 µM (inactive) | 2.52 µM (inactive) | 10 µM (inactive) | 13.6 µM (inactive) | 3 µM (inactive) | 3.65 µM (inactive) | 3.86 | 2.99 µM (inactive) | 2.98 µM (inactive) | 9.55 µM (inactive)
8 | O=S(=O)(O)c1ccc2c(/N=N/c3ccc(Sc4ccc(/N=N/c5c(O)ccc6cc(S(=O)(=O)O)ccc56)cc4)cc3)c(O)ccc2c1 | > 100 µM (inactive) | > 100 µM (inactive) | > 100 µM (inactive) | > 100 µM (inactive) | > 100 µM (inactive) | > 100 µM (inactive) | > 100 µM (inactive) | > 100 µM (inactive) | > 100 µM (inactive) | > 100 µM (inactive) | > 100 µM (inactive) | > 100 µM (inactive) | > 100 µM (inactive) | > 100 µM (inactive) | > 100 µM (inactive) | > 100 µM (inactive) | > 100 | > 100 µM (inactive) | > 100 µM (inactive) | > 100 µM (inactive)
9 | COc1ccc(C(=O)N=C2N(c3ccccc3)C(=N/c3ccccc3)/C(=N\c3ccccc3)N2c2ccccc2)cc1 | 21.9 µM (inactive) | 8.63 µM (inactive) | 29.9 µM (inactive) | 16.8 µM (inactive) | 48.8 µM (inactive) | > 100 µM (inactive) | 18.3 µM (inactive) | 88.3 µM (inactive) | 30.7 µM (inactive) | 20.6 µM (inactive) | > 100 µM (inactive) | 19.1 µM (inactive) | > 75.7 µM (inactive) | > 85.7 µM (inactive) | > 61.2 µM (inactive) | > 100 µM (inactive) | > 100 | 36.1 µM (inactive) | 65.8 µM (inactive) | 30.3 µM (inactive)
10 | O=c1c2cccnc2[nH]c2ccc3cn[nH]c3c12 | > 10 µM (inactive) | > 10 µM (inactive) | 5.38 µM (inactive) | > 10 µM (inactive) | 3.48 µM (inactive) | > 10 µM (inactive) | > 10 µM (inactive) | > 10 µM (inactive) | > 10 µM (inactive) | > 10 µM (inactive) | – | > 10 µM (inactive) | > 10 µM (inactive) | > 10 µM (inactive) | 5.05 µM (inactive) | 7.06 µM (inactive) | 9.42 | 3.61 µM (inactive) | > 10 µM (inactive) | > 10 µM (inactive)
11 | CCOC(=O)C(O)(NC(C)=O)C(F)(F)F (stereo unspecified) | > 100 µM (inactive) | > 100 µM (inactive) | > 100 µM (inactive) | > 100 µM (inactive) | > 100 µM (inactive) | > 100 µM (inactive) | > 100 µM (inactive) | > 100 µM (inactive) | > 100 µM (inactive) | > 100 µM (inactive) | > 100 µM (inactive) | > 100 µM (inactive) | > 100 µM (inactive) | > 100 µM (inactive) | > 100 µM (inactive) | > 100 µM (inactive) | > 100 | > 100 µM (inactive) | > 100 µM (inactive) | > 100 µM (inactive)
12 | O=C1C[C@@]23CCC4(CC2CCC[C@H]3O1)OCCO4 (stereo partly specified) | > 100 µM (inactive) | > 100 µM (inactive) | > 100 µM (inactive) | > 100 µM (inactive) | > 100 µM (inactive) | > 100 µM (inactive) | > 100 µM (inactive) | > 100 µM (inactive) | > 100 µM (inactive) | > 100 µM (inactive) | – | > 100 µM (inactive) | > 100 µM (inactive) | > 100 µM (inactive) | > 100 µM (inactive) | > 100 µM (inactive) | > 100 | > 100 µM (inactive) | > 100 µM (inactive) | > 100 µM (inactive)
13 | O=C(O)CC(O)(C(=O)O)C(O)C(=O)O (stereo unspecified) | > 1000 µM (inactive) | > 1000 µM (inactive) | > 1000 µM (inactive) | > 1000 µM (inactive) | > 1000 µM (inactive) | > 1000 µM (inactive) | > 1000 µM (inactive) | 826 µM (inactive) | > 1000 µM (inactive) | > 1000 µM (inactive) | – | > 1000 µM (inactive) | > 1000 µM (inactive) | > 1000 µM (inactive) | > 1000 µM (inactive) | > 1000 µM (inactive) | > 1000 | > 1000 µM (inactive) | > 1000 µM (inactive) | > 1000 µM (inactive)
14 | O=C1OC(c2ccco2)=N/C1=C\c1ccc(Cl)c(Cl)c1 | 85.1 µM (inactive) | 27.4 µM (inactive) | 57.5 µM (inactive) | > 100 µM (inactive) | 75.9 µM (inactive) | 89.7 µM (inactive) | > 100 µM (inactive) | > 100 µM (inactive) | 51.4 µM (inactive) | 86.1 µM (inactive) | – | 57.7 µM (inactive) | > 100 µM (inactive) | 70.8 µM (inactive) | > 100 µM (inactive) | 3.67 µM (inactive) | > 100 | 72.8 µM (inactive) | 59.6 µM (inactive) | 62.1 µM (inactive)
